Reference: article PMC8820820, “Feasibility and safety of targeting mitochondria for cancer therapy – preclinical characterization of gamitrinib, a first-in-class, mitochondriaL-targeted small molecule Hsp90 inhibitor” (Cancer Biology & Therapy, 2022)

Tests used:
Kir2.1 = target: T1, Kir2.1 (Homo sapiens, UniProt P63252); assay: Ion channel screening; assay type: cell-based; details: 10 µM, pulse 10
T1 sequence (P63252 1-427): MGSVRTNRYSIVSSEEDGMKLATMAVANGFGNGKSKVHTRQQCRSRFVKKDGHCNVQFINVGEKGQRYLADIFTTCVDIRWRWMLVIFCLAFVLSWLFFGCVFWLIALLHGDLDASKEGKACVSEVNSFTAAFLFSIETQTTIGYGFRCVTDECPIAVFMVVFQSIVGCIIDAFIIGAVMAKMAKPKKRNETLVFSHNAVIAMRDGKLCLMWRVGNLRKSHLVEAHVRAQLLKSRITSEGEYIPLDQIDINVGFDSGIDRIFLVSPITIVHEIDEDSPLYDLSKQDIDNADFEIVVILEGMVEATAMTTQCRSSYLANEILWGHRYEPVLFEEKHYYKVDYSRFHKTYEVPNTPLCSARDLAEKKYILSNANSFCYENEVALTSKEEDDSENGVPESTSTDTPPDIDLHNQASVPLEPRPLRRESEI
Description: Ion channel screening. […] Human Kir2.1 currents were evoked from a holding potential of -20 mV by a series of 10 500 msec pulses to -120 mV using a 200 msec interval between pulses. The parameters measured were the amplitudes of the instantaneous inward currents evoked on stepping to -120 mV for the 1st pulse and the maximum inward current at the end of the 10th hyperpolarizing pulse. For all experiments, data were filtered for seal quality, seal drop, and current amplitude.

[1] = Stability in human plasma
KCNQ1/mink = KCNQ1/mink (Homo sapiens, UniProt P51787); assay: Ion channel screening; assay type: cell-based; details: 10 µM
KCNQ1/mink, sequence (P51787 whole entry): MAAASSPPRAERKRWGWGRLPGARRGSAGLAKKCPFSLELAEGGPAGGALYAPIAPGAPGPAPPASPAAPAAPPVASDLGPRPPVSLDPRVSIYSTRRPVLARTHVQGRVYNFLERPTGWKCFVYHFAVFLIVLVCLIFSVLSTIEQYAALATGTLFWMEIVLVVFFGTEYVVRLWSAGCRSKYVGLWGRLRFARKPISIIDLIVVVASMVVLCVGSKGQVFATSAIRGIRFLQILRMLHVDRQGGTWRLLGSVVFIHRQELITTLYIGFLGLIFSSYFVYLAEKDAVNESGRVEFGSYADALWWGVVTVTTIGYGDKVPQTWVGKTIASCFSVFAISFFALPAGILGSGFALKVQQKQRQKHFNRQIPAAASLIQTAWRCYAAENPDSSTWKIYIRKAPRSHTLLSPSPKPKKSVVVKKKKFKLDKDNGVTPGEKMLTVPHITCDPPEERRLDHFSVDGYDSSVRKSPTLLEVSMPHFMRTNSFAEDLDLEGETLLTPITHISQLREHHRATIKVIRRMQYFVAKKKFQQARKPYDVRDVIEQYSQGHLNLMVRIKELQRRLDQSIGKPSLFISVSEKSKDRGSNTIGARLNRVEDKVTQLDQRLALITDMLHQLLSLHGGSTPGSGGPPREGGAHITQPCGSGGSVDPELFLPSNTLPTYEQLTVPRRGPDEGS

beagle dogs = assay: Toxicity in beagle dogs; assay type: in vivo
Description: Eighteen male and female (5–6 mo old) purebred beagle dogs (Cumberland, VA) were acclimated for 47 d (20°C to 26°C, relative humidity 30–70%, 10 or greater air changes/h, and a 12-h light/dark cycle) prior to study initiation. Animals were given water ad libitum and Certified Canine Diet #5007 (PMI Nutrition International Certified LabDiet®) for 4 to 5 h each day. At study initiation, animal body weights ranged from 8.6 to 11.5 kg for males and 6.0 to 9.4 kg for females. At least 1 week prior to initiation of dosing, animals were fasted overnight, anesthetized, and a catheter attached to a subcutaneous vascular access port was surgically implanted into a jugular vein. Animals were acclimated to infusion jackets prior to catheter implantation surgery. Animals were infused with sterile saline at a dose rate of 5 mL/h when the vascular access ports were accessed and when animals were connected to the infusion system (except when dosed with the test or vehicle control article). The patency of each catheter was checked as needed. Prednisolone tablets were administered orally at 2 mg/kg the night prior to dosing. Diphenhydramine (5 mg/kg; IM injection 0.1 mL/kg, 50 mg/mL) was administered prior to dosing and post the start of infusion (d 1 only). Male and female dogs received dose levels of Gamitrinib of 1.25, 3.33 and 6.25 mg/kg/dose formulated as indicated above during a 1 h infusion on d 1, 8, 11, 15, 18, 22, 25, 29, 32, and 36 at a volume of 2 mL/kg. The vehicle control was as above. […] Dosing was stopped, and 23 of 24 animals were administered additional diphenhydramine, 11 were administered Flunixin meglumine and buprenorphine, and 6 were administered acepromazine. Symptoms subsided in all animals after completion of these interventions. As a result of these observations, the polysorbate levels, which were increased from 0.025% (w/v) to 0.125% (w/v) to minimize precipitation, were returned to the original concentrations; 2 mg/kg prednisone was administered orally the night prior to dosing; and the diphenhydramine pretreatment dose was updated to 5 mg/kg 15 to 30 min prior to dosing. Detailed observations were conducted for each animal up to seven times during the predose phase, prior to dosing on d 1, 8, 15, 22, 29, and 36 of the dosing phase, and on d 1, 7, and 14 of the recovery phase. Blood samples (1 mL) were collected via the cephalic vein 5, 15, and 30 min and 1, 4, 8, and 24 h post the end of infusion on d 8 and 36 of the dosing phase. Formalin-fixed and paraffin-embedded tissue samples collected at the end of the study (d 39) were processed for histologic examination.

tumor cell = system: tumor cell; design: method as in PMID 19229106, PMID 29348817; details: in culture; read-out: IC50 of tumor cell killing; cited from earlier work
CYP3A4 = CYP3A4 (Homo sapiens, UniProt P08684); details: microsomes
CYP3A4, sequence (P08684 whole entry): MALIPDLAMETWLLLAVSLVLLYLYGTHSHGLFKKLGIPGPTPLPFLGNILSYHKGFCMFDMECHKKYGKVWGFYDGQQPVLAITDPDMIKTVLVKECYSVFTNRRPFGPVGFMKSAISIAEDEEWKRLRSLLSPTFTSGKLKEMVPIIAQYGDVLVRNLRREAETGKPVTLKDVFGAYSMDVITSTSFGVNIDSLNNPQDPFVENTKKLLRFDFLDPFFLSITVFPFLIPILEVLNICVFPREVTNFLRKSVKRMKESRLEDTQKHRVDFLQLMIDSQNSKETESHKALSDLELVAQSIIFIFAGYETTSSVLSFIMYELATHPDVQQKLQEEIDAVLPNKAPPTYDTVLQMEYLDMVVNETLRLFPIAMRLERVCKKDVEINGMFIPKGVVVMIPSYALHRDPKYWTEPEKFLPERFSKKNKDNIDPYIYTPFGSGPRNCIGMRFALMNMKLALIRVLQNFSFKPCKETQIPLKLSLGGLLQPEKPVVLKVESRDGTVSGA
Description: (§1) CYP inhibition in liver microsomes. […] Samples were analyzed for metabolite formation by LC-MS/MS. The results were expressed using the peak area ratio of analyte to internal standard, based on the calibration curves.
(§2) Where Range=fitted uninhibited value, s=slope factor, x=inhibitor concentration, y=% control activity.

tumor = details: mice; cited from earlier work
CYP2B6 = target: T2, CYP2B6 (Homo sapiens, UniProt P20813); details: microsomes
T2 sequence (P20813 1-491): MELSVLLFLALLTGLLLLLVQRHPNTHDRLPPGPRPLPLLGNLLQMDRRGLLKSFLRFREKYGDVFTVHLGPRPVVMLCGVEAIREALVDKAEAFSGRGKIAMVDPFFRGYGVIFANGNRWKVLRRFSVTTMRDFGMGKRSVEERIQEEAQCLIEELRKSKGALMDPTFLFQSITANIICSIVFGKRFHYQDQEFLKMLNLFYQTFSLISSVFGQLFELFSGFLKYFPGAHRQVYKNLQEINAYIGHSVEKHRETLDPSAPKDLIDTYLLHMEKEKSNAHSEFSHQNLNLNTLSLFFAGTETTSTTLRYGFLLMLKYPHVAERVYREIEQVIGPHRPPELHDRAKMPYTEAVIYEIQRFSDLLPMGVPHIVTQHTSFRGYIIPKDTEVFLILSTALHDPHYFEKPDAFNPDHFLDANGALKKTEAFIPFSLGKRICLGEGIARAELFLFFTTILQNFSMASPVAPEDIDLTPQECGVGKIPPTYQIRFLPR
Description: as §1, §2

CYP2A6 = target: T3, CYP2A6 (Homo sapiens, UniProt P11509); details: microsomes
T3 sequence (P11509 1-494): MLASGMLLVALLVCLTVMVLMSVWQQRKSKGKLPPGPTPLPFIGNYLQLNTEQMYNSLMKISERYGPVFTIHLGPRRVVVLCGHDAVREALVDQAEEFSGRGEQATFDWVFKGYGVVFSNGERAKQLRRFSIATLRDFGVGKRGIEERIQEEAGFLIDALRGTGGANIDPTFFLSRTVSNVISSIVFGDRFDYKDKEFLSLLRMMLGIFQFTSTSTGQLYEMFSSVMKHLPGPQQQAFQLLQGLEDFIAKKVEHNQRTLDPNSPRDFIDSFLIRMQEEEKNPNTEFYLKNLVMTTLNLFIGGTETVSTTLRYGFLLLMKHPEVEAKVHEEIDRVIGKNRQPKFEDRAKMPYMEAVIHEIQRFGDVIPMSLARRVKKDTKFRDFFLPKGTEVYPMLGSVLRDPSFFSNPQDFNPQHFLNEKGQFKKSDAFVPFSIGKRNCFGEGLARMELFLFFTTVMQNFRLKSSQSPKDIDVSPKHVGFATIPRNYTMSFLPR
Description: as §1, §2

In the case of `COC1C=CC=C(C)C(=O)NC2=CC(=O)C(NCCCCCC[P+](c3ccccc3)(c3ccccc3)c3ccccc3)=C(CC(C)CC(OC)C(O)C(C)C=C(C)C1OC(N)=O)C2=O.F[P-](F)(F)(F)(F)F` (stereo not drawn) [Gamitrinib], the “inhibition of Kir2.1 currents” value (Kir2.1) is reported as −7.3 ± 3.4%, the average recovery [1] is reported as 82.8 ± 3% and the “stability in human plasma” value [1] is reported as 91.4%. The “inhibition of KCNQ1/mink currents” value (KCNQ1/mink) was 22.5 ± 1.1%, the “Bone marrow and liver parameters” value (beagle dogs; dog, in vivo) was “unremarkable” and the organ weight (beagle dogs; dog, in vivo) was “No Gamitrinib-related changes in organ weight”. For the same molecule, the kidney microscopic findings (beagle dogs; dog, in vivo, 6.25 mg/kg) was “slight to moderate kidney tubular degeneration/regeneration”, the “serum urea nitrogen and creatinine” value (beagle dogs; dog, in vivo, 6.25 mg/kg) was “trend of increased serum urea nitrogen and creatinine” and the NOAEL (beagle dogs; dogs, IV for 36 d) was 3.33 mg/kg/dose. The “highest non-severely toxic dose (HNSTD)” value (beagle dogs; dogs, IV for 36 d) was 6.25 mg/kg/dose, the IC50 (tumor cell) was 1 to 4 µM and the IC50 (CYP3A4) was 0.12 to 0.2 µM. The therapeutically effective dose (tumor) was 10 mg/kg, the IC50 (CYP2B6) was 16 µM and the IC50 (CYP2A6) was 24 µM.
